Assays:
[1] = Fluorescence lifetime by time correlated single photon counting; settings: 2-aminoacridone attached directly to the α-carboxylic acid group
Method: The fluorescence lifetimes of the synthesised peptides recorded above were measured by time correlated single photon counting. Peptides were dissolved in aqueous buffer solutions and excited at 405 nm using a pulsed solid state laser diode (Picoquant LDH-405). Fluorescent emission was filtered through a narrow bandpass interference filter (480/20 nm) and single photons were detected by a photomultiplier tube detector (Hamamatsu R7400P) and counted using a fast timing board with histogramming memory (Ortec 9353).

caspase 3 enzyme = molecular target: T1, caspase 3 enzyme (Homo sapiens, UniProt P42574); assay: Cleavage of fluorogenic peptides by caspase 3 (Example 3, FIG. 1); assay type: biochemical; settings: 1 mM Zn2+
T1 sequence (P42574 29-175 limits assumed): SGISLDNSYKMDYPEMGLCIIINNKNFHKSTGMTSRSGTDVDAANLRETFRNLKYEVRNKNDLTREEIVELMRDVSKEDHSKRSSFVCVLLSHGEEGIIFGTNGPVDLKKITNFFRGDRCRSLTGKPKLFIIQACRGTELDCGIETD
T1 sequence (P42574 176-277 limits assumed): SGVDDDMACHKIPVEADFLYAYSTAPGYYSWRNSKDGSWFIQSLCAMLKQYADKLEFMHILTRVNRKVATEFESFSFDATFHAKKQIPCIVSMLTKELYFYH
From the text: Caspase 3 cleaves WSDEVD-(2aa2) and WSDEVD-(2aa6) at the second aspartic acid residue.
PT14 peptide is WSDEVD-PT14, a conventionally labeled peptide, where PT14 is the Puretime 14 moiety. PT14 peptide is also known as peptide 10, but is not made in accordance with the method of the present invention. Puretime 14 is available from AssayMetrics Limited, Cardiff, UK.

effect on the action of caspase 3 enzyme (caspase 3 enzyme) | Molecule | fluorescence lifetime of adducts of 2-aminoacridone [1]
– | CC(=O)N[C@@H](Cc1c[nH]c2ccccc12)C(=O)Nc1ccc2[nH]c3ccccc3c(=O)c2c1 | 3.0 nanoseconds
inhibited the action of the enzyme | zinc ions [reference compound] | –
– | CC(=O)N[C@@H](C)C(=O)Nc1ccc2[nH]c3ccccc3c(=O)c2c1 | 18.1 nanoseconds
– | CC(=O)N[C@@H](Cc1ccc(O)cc1)C(=O)Nc1ccc2[nH]c3ccccc3c(=O)c2c1 | 9.4 nanoseconds

Source: patent US20110039289A1, “FLUOROGENIC PEPTIDES AND THEIR METHOD OF PRODUCTION” (priority 2008, published 2011)
